Experimental data taken from patent publication US7144860B2, “Heart homing conjugates” (priority 1999, dated 2006).
Entries after “also recorded” stand apart in the source; their conditions may differ.

Key:
[1] = system: normal heart; assay: In vivo phage homing to normal heart (phage per gram heart / phage per gram brain); parameters: species or system mice; details: for Enrichment (relative enrichment compared with insertless phage): Targeted tissue Normal Heart, n=6 or 7 animals; for Enrichment (relative enrichment compared with insertless phage) / Homing to normal heart (in words): individual phage; for Enrichment in normal heart as compared to brain: normal heart versus control brain tissue, phage expressing the peptide; for Homing to normal heart (in words): normal animals
Procedure: Individual phage (5×10^9 TU) were injected intravenously and allowed to circulate for 5 minutes prior to perfusion of the vasculature and harvesting of the heart and brain. The number of phage recovered from the heart (per gram) was normalized by the number of phage recovered from the brain (per gram). Fd-tet was a phage without any additional peptide insert. […] The data shown are the logarithmic means and logarithmic standard errors of the multiple experiments.
In vivo panning was performed to identify phage that selectively home to normal coronary endothelium by injection of phage libraries and isolation of individual phage from the heart as follows. […] Both linear (X7 (SEQ ID NO: 1)) and cyclic (CX7C (SEQ ID NO: 13), CX9C (SEQ ID NO: 14), and CX11C (SEQ ID NO: 15)) libraries were used, where “C” indicates cysteine and “XN” indicates the given number of individually selected amino acids.
Libraries were administered independently with the initial titer of the various libraries. In vivo phage selection was performed as described in Pasqualini and Ruoslahti, Nature 380:364–366 (1996), with a few modifications. In both normal and ischemic targeting, 2.5×10^8 transducing units of the initial phage libraries were injected intravenously into the jugular vein. After 5 minutes of phage circulation in vivo, the heart was arrested by intraventricular injection of a hyperkalemic (30 mM KCl), hypothermic solution of DMEM, and the vasculature cleared of blood by perfusion with 5–10 ml of hyperkalemic DMEM through a left ventricular cannula. After the heart and brain were harvested, homogenized and weighed, phage were rescued by infection with K91 Kan bacteria. For the second and third rounds of selection, 200 normal or 100 ischemic clones were picked from the previous round and individually grown to saturation. Cultures were then pooled, phage particles purified and 10^10 TU of a pool reinjected into similarly treated mice.
(§1) All data were calculated as the ratio of the number of phage obtained per gram of heart tissue to the number of phage obtained per gram of brain tissue. Means, standard deviations, standard errors and parametric statistics were based on the assumption that this ratio is derived from a log-normal distribution.

[2] = system: ischemic/reperfused myocardium; assay: In vivo phage homing to ischemia-reperfusion injured heart (phage per gram heart / phage per gram brain); parameters: species or system mice; details: for Homing to ischemic/reperfused myocardium (in words) / Enrichment (relative enrichment compared with insertless phage): individual phage; for Homing to ischemic/reperfused myocardium (in words): ischemia-reperfusion injured animals; for Enrichment (relative enrichment compared with insertless phage): Targeted tissue Ischemic Heart
Procedure: Individual phage obtained from screening in ischemic-reperfused hearts were injected at 5×10^9 TU intravenously into normal animals (open squares) or animals subject to 30 minutes myocardial ischemia by occlusion of the left anterior descending (LAD) coronary artery followed by 30 minutes reperfusion (closed circles). Phage were allowed to circulate for 5 minutes prior to perfusion of the vasculature and harvesting of the heart and brain. The number of phage recovered from the heart (per gram) was normalized by the number of phage recovered from the brain (per gram). […] The data shown are-the logarithmic means and logarithmic standard errors of the multiple experiments.
The number of phage recovered from the heart (per gram) was normalized by the number of phage recovered from the brain (per gram). The data shown are the logarithmic means and logarithmic standard errors for six to seven individual experiments.
as §1
Ischemia-reperfusion was performed as follows using large male CD-1 mice weighing about 40 grams to facilitate the surgical protocol. Briefly, mice were anesthetized by an intramuscular injection of a mixture of xylazine (50 mg/kg) and ketamine (50 mg/kg) and subsequently intubated with an endotracheal tube and ventilated with a mixture of oxygen and room air using a Harvard Apparatus (0.05 ml; 100 bpm). The heart was exposed with a left thoracotomy, and a 7-0 suture was placed under the left anterior descending (LAD) coronary artery; the vessel was occluded by tying a knot over a small piece of polyethylene tubing (PE50). Ischemia was confirmed by cyanosis of the myocardium. After 30 minutes of occlusion, the knot was cut and blood flow restored to the region. Reperfusion was allowed to proceed for 30 minutes before phage targeting to allow for some vascular changes while limiting neutrophil recruitment to the area.

[3] = system: ischemic left ventricle; assay: Phage recovered from injured left ventricle versus right ventricle and septum, ischemic hearts; assay type: in vivo, mice; details: animals after myocardial ischemia-reperfusion
Procedure: The number of phage recovered from the left ventricle (g^−1) was normalized by the number of phage recovered from the right ventricle and septum (g^−1). The overall data shown are a logarithmic mean and logarithmic standard deviation for 47 normal and 35 ischemic hearts. The data for phage bearing SEQ ID NO: 10 (R13) are for six individual animals each.
Ischemia-reperfusion was performed as follows using large male CD-1 mice weighing about 40 grams to facilitate the surgical protocol. Briefly, mice were anesthetized by an intramuscular injection of a mixture of xylazine (50 mg/kg) and ketamine (50 mg/kg) and subsequently intubated with an endotracheal tube and ventilated with a mixture of oxygen and room air using a Harvard Apparatus (0.05 ml; 100 bpm). The heart was exposed with a left thoracotomy, and a 7-0 suture was placed under the left anterior descending (LAD) coronary artery; the vessel was occluded by tying a knot over a small piece of polyethylene tubing (PE50). Ischemia was confirmed by cyanosis of the myocardium. […]
As a further test of specificity for homing to ischemic heart, phage homing to the injured left ventricle was compared to homing to the normal right ventricle and septum. […] When the ratio of phage accumulation in the left ventricle only is calculated relative to accumulation in the brain, the preferential accumulation of […] […]

Substance | Enrichment (relative enrichment compared with insertless phage) [1] | Enrichment in normal heart as compared to brain [1] | Homing to ischemic/reperfused myocardium (in words) [2] | Homing to normal heart (in words) [1] | Enrichment (relative enrichment compared with insertless phage) [2] | other results
VVLVTSS (phage displayed) [SEQ ID NO: 4] | ~2 fold | at least two-fold | – | – | – | Enrichment (relative enrichment compared with insertless phage) ([1]; listed as 4): 2-fold
GGGVFWQ (phage displayed) [SEQ ID NO: 2] | ~5 fold | – | remained enriched | binds to normal heart; also recorded: strongly targeted the normal myocardium | – | Enrichment (relative enrichment compared with insertless phage) ([1]; listed as 2): 5-fold
CRSWNKADNRSC (phage displayed) [SEQ ID NO: 10] | – | – | – | did not target the normal heart | 5 fold | Preferential homing to the ischemic left ventricle versus right ventricle (in words) [3]: more phage were recovered from the injured left ventricle than the right ventricle; also recorded: preferentially homed to the ischemic left ventricle as compared to the uninjured right ventricle; Enrichment (relative enrichment compared with insertless phage) ([2]; listed as 10): 5-fold; Phage accumulation in the left ventricle only relative to accumulation in the brain ([2]; ischemia-reperfusion injured hearts, left ventricle only): 7 fold
CLHRGNSC (phage displayed) [SEQ ID NO: 9] | ~2 fold | at least two-fold | – | – | ~2 fold | Enrichment (relative enrichment compared with insertless phage) ([1]; listed as 9): 2-fold
RPGRLNG (phage displayed) [SEQ ID NO: 8] | – | – | did not change | did not home to normal heart; also recorded: clearly did not target the normal myocardium | – | –
HGRVRPH (phage displayed) [SEQ ID NO: 3] | ~2 fold | at least two-fold | – | – | – | Enrichment (relative enrichment compared with insertless phage) ([1]; listed as 3): 2-fold
